Tests used:
Plasmodium falciparum [1] = experiment: NOVARTIS: Inhibition of Plasmodium falciparum 3D7 (drug-susceptible) proliferation in erythrocyte-based infection assay; type: functional, organism-based; conditions: Plasmodium falciparum, 3D7
Plasmodium falciparum [2] = experiment: NOVARTIS: Inhibition of Plasmodium falciparum W2 (drug-resistant) proliferation in erythrocyte-based infection assay; type: functional, organism-based; conditions: Plasmodium falciparum, W2; read-out: EC50
[3] = NOVARTIS: Cytotoxicity against human hepatocellular carcinoma cell line (Huh7); type: toxicity, cell-based, Huh-7; conditions: Huh7 cells (hepatocellular carcinoma cell line)

Row | Structure (SMILES) | EC50 (Plasmodium falciparum [1]) | EC50 (Plasmodium falciparum [2]) | CC50 [3]
1 | CCOc1ccc(C(=O)Nc2cc(OC)ccc2OC)cc1 | > 1250 nM | > 917 nM | > 10000 nM
2 | O=C(CN1CCN(S(=O)(=O)c2cccc([N+](=O)[O-])c2)CC1)Nc1ccc(OCc2ccccc2)cc1 | 3910 nM | 2650 nM | > 100000 nM
3 | O=C(NN=Cc1ccc(Br)cc1)c1ccco1 | 11400 nM | > 12500 nM | > 100000 nM
4 | COC(=O)NCCNC(=O)COC(c1cccs1)c1cccnc1Cl (configuration not stated) | 185 nM | 170 nM | > 10000 nM
5 | CNC(=O)[C@@H]1C[C@@H](NCc2ccc(OC)cc2)CN1Cc1ccccc1 | > 1100 nM | > 1250 nM | > 10000 nM
6 | CCOC(=O)N1CCN(C(=O)C(=O)NNC(=O)COc2ccc(Cl)cc2Br)CC1 | > 1250 nM | 769 nM | > 10000 nM
7 | Fc1ccc(-c2c[n+](Cc3ccc(Cl)cc3Cl)c3n2CCC3)cc1 | 1450 nM | 880 nM | > 100000 nM
8 | c1ccc(C2=Nc3ccccc3C(c3ccccc3)(c3ccccc3)N2)cc1 | 754 nM | 590 nM | 39400 nM
9 | CCOC(=O)c1ccc2c(c1)[C@@H]1C=CC[C@@H]1[C@H](c1ccc(OC)c([N+](=O)[O-])c1)N2 | 390 nM | 376 nM | > 100000 nM
10 | CCCN[P+](CC(C)C)(NCCC)NCCC | 211 nM | 398 nM | 3340 nM
11 | O=C(NCc1ccccc1)c1cnc(NCCN2CCCCC2)nc1NCCc1ccccc1 | 950 nM | > 1250 nM | > 10000 nM
12 | COc1cccc(C(NC(=O)c2ccccc2)c2ccc3cccnc3c2O)c1 (configuration not stated) | 134 nM | 216 nM | > 100000 nM
13 | CCCN1CCC(N2C[C@@H](NCc3ccc(OCc4ccccc4)cc3)C[C@H]2C(=O)NCCc2ccc3c(c2)OCO3)CC1 | 1070 nM | 701 nM | 3560 nM
14 | OC(CNc1cccc2ccccc12)Cn1c2ccc(Cl)cc2c2cc(Cl)ccc21 (configuration not stated) | 403 nM | 306 nM | 54200 nM
15 | CCCCOc1ccc(NC2=NC3(CCCC3)NC(N)=N2)cc1 | 1090 nM | 2330 nM | > 100000 nM
16 | COc1ccc(S(=O)(=O)N(C)CCCNc2ccnc3cc(Cl)ccc23)cc1 | 115 nM | 197 nM | 10100 nM
17 | O=C(Nc1cc(Cl)ccc1O)c1cnn2c(C(F)(F)F)cc(-c3ccc(F)cc3)nc12 | > 8740 nM | 2910 nM | > 100000 nM
18 | COc1ccc2sc(Nc3nc(-c4ccccn4)cs3)nc2c1 | 118 nM | 125 nM | 4400 nM
19 | C[n+]1ccccc1C=Cc1ccc(Br)cc1 | 352 nM | 221 nM | 95200 nM
20 | CN(CCCNc1ccnc2cc(Cl)ccc12)C(=O)c1ccc2c(c1)OCO2 | 249 nM | 214 nM | > 10000 nM
21 | O=C(Nc1ccon1)c1cc(-c2cccnc2)nc2ccc(Br)cc12 | 1970 nM | 2510 nM | > 81000 nM
22 | COc1ccc(CN(C)C(C)C)cc1OC1CCN(C(=O)C2CCC2)CC1 | > 11200 nM | > 10000 nM | > 100000 nM
23 | CN1C(=O)N(C)C(NNC(N)=S)C1NNC(N)=S (configuration not stated) | 8.92 nM | 6.21 nM | > 100000 nM

Row | Structure (SMILES) | EC50 (Plasmodium falciparum [1]) | EC50 (Plasmodium falciparum [2]) | CC50 [3]
24 | COc1ccc(OC)c(-c2ccc(O)c(CN3CCC(c4ccccc4)CC3)c2)c1 | 508 nM | 9.12 nM | > 100000 nM
25 | Cc1cc(C)cc(OCC(=O)N2N=C(C(C)C)CC2(O)C(F)(F)F)c1 (configuration not stated) | 1750 nM | > 1220 nM | > 10000 nM
26 | Cc1ccccc1-c1cnnc(NCC2CCCCO2)n1 (configuration not stated) | 11100 nM | 4820 nM | > 100000 nM
27 | C=C(C[N+](C)(C)C)c1ccc([N+](=O)[O-])cc1 | 317 nM | 279 nM | > 10000 nM
28 | OC1(C(F)(F)F)CC(c2ccccc2)=NN1c1nncc(-c2ccccc2)n1 (configuration not stated) | 236 nM | 314 nM | > 10000 nM
29 | O=C1NC(=O)C(Cc2ccc(S(=O)(=O)N3CCN(c4ccccc4)CC3)cc2)S1 (configuration not stated) | 790 nM | 5430 nM | > 100000 nM
30 | Cc1cccc(N2CCN(c3nc4ccccc4c4nnc(C)n34)CC2)c1C | 4400 nM | 943 nM | > 100000 nM
31 | O=C(Nc1c(C(=O)Nc2cccc(Cl)c2)oc2ccccc12)c1cc(-c2ccccc2O)n[nH]1 | 272 nM | 74.2 nM | 35100 nM
32 | C(=C1\C(c2ccccc2)=Nc2ccccc21)/c1c(-c2ccccc2)[nH]c2ccccc12 | 210 nM | 36.4 nM | > 10000 nM
33 | CCCOC(=O)C1=C(C)NC2=C(C(=O)CC(c3ccc(OC)c(OC)c3)C2)C1c1cccc(C)c1 (configuration not stated) | 91.3 nM | 35.9 nM | 32000 nM
34 | CCCOC(=O)C1=C(C)NC2=C(C(=O)CC(c3ccc(OC)c(OC)c3)C2)C1c1cccc([N+](=O)[O-])c1 (configuration not stated) | 145 nM | 36.4 nM | > 62400 nM
35 | OC(COc1ccc(OCC(O)CN2CCN(CCOc3ccccc3)CC2)cc1)CN1CCN(CCOc2ccccc2)CC1 (configuration not stated) | > 11000 nM | 853 nM | > 100000 nM
36 | COC(=O)C1=CNC=C(C(=O)OC)C1c1ccc(Cl)c([N+](=O)[O-])c1 | 135 nM | 165 nM | > 100000 nM
37 | CC(C)N(CC(=O)Nc1cc(C(C)(C)C)nn1-c1ccc(Cl)c(Cl)c1)C(=O)c1ccc2ccccc2c1 | 1310 nM | 3000 nM | > 100000 nM
38 | COc1ccc(CNc2ncnc3c2[nH]c2cc(OC)ccc23)cc1 | 958 nM | 856 nM | 24100 nM
39 | Clc1ccc(C[n+]2cc(-c3ccccc3)n3c2CCC3)cc1Cl | 499 nM | 158 nM | > 55700 nM
40 | CCCCCC[n+]1ccccc1C=Cc1ccc(N(C)C)cc1 | 118 nM | 238 nM | 1600 nM
41 | O=C(Nc1ccc(-c2cnc(-c3ccc(NC(=O)c4cccc([N+](=O)[O-])c4)cc3)nc2)cc1)c1cccc([N+](=O)[O-])c1 | > 480 nM | 681 nM | > 10000 nM
42 | CCOC(=O)CCC(=O)N(C)CCCNc1ccnc2cc(Cl)ccc12 | 673 nM | < 15.6 nM | > 10000 nM
43 | CSc1nnc(NC(=O)C2CC2)s1 | > 12500 nM | 1910 nM | > 100000 nM
44 | CCCCN1C(=O)/C(=C/N(C(=O)CC)c2ccccc2)SC1=S | > 699 nM | > 853 nM | > 10000 nM
45 | Nc1ncc(Br)cc1S(=O)(=O)NCCC(=O)N1CC=C(c2ccccc2)CC1 | 384 nM | 1020 nM | 48900 nM
46 | CN(Cc1ccccc1)C(=O)CCNS(=O)(=O)c1cc(Br)cnc1N | 614 nM | 355 nM | > 10000 nM

Row | Structure (SMILES) | EC50 (Plasmodium falciparum [1]) | EC50 (Plasmodium falciparum [2]) | CC50 [3]
47 | CC1(C)Cc2c(sc(NC(=O)CCl)c2C#N)CO1 | 2040 nM | 2080 nM | 20500 nM
48 | O=C(Nc1ccc(C2=NCCN2)c(Cl)c1)c1ccc(C(=O)Nc2ccc(C3=NCCN3)c(Cl)c2)cc1 | 554 nM | 234 nM | > 10000 nM
49 | CCCN1CCC(N2C[C@@H](NCCC3=C(C)CCCC3(C)C)C[C@H]2C(=O)NCC)CC1 | 2340 nM | 765 nM | 35100 nM
50 | Cc1cc(Nc2ccc([N+](=O)[O-])cc2O)nc2ccccc12 | 357 nM | 144 nM | 28000 nM
51 | CCOC(=O)c1nnn(-c2nonc2-n2cccc2)c1CN1CCCCC1 | 2430 nM | 2210 nM | > 100000 nM
52 | COC(=O)c1sc2nc(CN(C)CC(C)C)ccc2c1NC(=O)c1ccc(C)s1 | > 12500 nM | 4010 nM | > 100000 nM
53 | COc1cc(NC(=O)C(F)(F)F)c(C(=O)c2ccc(C(F)(F)F)cc2)cc1OC | 1140 nM | > 1200 nM | > 10000 nM
54 | CC(C)Nc1nc(-c2cccnc2)nc2ccccc12 | > 829 nM | > 955 nM | > 10000 nM
55 | CCOC(=O)C1(CC2CCCCO2)CCN(Cc2cccc(C)n2)CC1 (configuration not stated) | > 8370 nM | 1780 nM | > 100000 nM
56 | C=CC1CN2CCC1CC2C(OC(=O)c1ccco1)c1ccnc2ccccc12 (configuration not stated) | 35.7 nM | 181 nM | 41800 nM
57 | CN1CCC(N2CCC(Oc3cccc(C(=O)NCCC4=CCCCC4)c3)CC2)CC1 | 780 nM | 944 nM | 20700 nM
58 | CCOc1cc([N+](=O)[O-])cc(C=Nc2cccc(NC(=O)c3ccco3)c2)c1O | > 1250 nM | > 1240 nM | > 10000 nM
59 | O=C(Cn1ccc(=NCc2ccccc2)cc1)c1ccc(Cl)cc1 | 296 nM | 602 nM | 12800 nM
60 | CC(C)CNc1nc(NCCCN2CCCC2)ncc1C(=O)NCc1ccccc1 | 664 nM | > 1230 nM | > 10000 nM
61 | COc1ccc([N+](=O)[O-])cc1-c1ccc(/C=C(\C#N)c2nn(CCO)c(N)c2C#N)o1 | 880 nM | 607 nM | > 10000 nM
62 | CC(C)NC(=O)N1CCN(C(=O)C(Cc2c[nH]c3ccccc23)NC(=O)Nc2cccc(Cl)c2Cl)CC1C (configuration not stated) | 27.2 nM | 43.9 nM | 57700 nM
63 | CCOC(=O)c1cnc(SCC(=O)Nc2cc(C)ccc2C)nc1N | > 1250 nM | > 660 nM | > 10000 nM
64 | CC(=O)OCC(=O)[C@@]1(O)CCC2C3CCC4=CC(=O)CC[C@]4(C)C3[C@@H](O)C[C@@]21C (some centres not stated) | > 1250 nM | < 23 nM | > 10000 nM
65 | C=C[C@H]1CN2CC[C@H]1C[C@@H]2[C@@H](OC(C)=O)c1ccnc2ccccc12 | 666 nM | 157 nM | > 10000 nM
66 | CC(Oc1cccc(Cl)c1)C(=O)N1CCc2ccccc21 (configuration not stated) | 748 nM | 750 nM | > 100000 nM
67 | CCCNCC(O)COc1ccccc1C(=O)CCc1ccccc1 (configuration not stated) [PROPAFENONE] | 252 nM | 116 nM | 28900 nM
68 | CCCc1cc(O)c2c3c(c(=O)oc2c1)CN(C)CC3 | 554 nM | 294 nM | > 100000 nM
69 | COc1ccc(C(Cc2ccccc2)NC2CN3CCC2CC3)cc1 (configuration not stated) | 4260 nM | 308 nM | > 65000 nM

— ChEMBL document CHEMBL1156829 (Proc Natl Acad Sci U S A, 2008)
